Test results taken from patent publication US12060347B2 (BRISTOL-MYERS SQUIBB COMPANY, priority 2016, dated 2024).

Molecular target: T1, human PAR4 (Homo sapiens, UniProt Q96RI0)
T1 construct: expressed in transfected cells; host or cells: HEK293 PAR4 Clone 1.2A (BMS Arctic ID 383940)
T1 sequence (Q96RI0 18-385): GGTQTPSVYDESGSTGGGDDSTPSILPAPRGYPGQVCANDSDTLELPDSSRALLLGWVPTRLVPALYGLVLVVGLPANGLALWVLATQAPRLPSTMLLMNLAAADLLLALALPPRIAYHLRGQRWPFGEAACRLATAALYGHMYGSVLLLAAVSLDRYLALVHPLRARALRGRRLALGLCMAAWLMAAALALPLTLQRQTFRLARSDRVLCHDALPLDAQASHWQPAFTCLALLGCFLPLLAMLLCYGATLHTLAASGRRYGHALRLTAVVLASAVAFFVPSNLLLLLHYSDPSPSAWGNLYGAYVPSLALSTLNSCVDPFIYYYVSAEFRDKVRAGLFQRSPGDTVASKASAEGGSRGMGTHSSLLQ
Assay: PAR4 FLIPR assay: antagonism of agonist-peptide-induced calcium mobilization in PAR4-expressing HEK293 cells
Format: cell-based
Settings: H-Ala-Phe(4-F)-[…]NH2-induced intracellular calcium mobilization, 11-point curves

COc1cnc2c(-c3nc4cc(F)c(O[C@@H](C)[C@@H](C)OC(=O)Nc5ccnc(OCCC(C)(C)O)c5)nc4s3)cc(C)cc2n1 [Example 727, (2R,3S)-3-((6-fluoro-2-(2-methoxy-7-methylquinoxalin-5-yl)thiazolo[5,4-b]pyridin-5-yl)oxy)butan-2-yl (2-(3-hydroxy-3-methylbutoxy)pyridin-4-yl)carbamate]
IC50: 1.7 nM

COc1cnc2c(-c3nc4cc(F)c(O[C@@H](C)[C@@H](C)OC(=O)Nc5cnc(OC[C@H](C)O)nc5)nc4s3)cc(C)cc2n1 [Example 728, (2R,3S)-3-((6-fluoro-2-(2-methoxy-7-methylquinoxalin-5-yl)thiazolo[5,4-b]pyridin-5-yl)oxy)butan-2-yl (2-((S)-2-hydroxypropoxy)pyrimidin-5-yl)carbamate]
IC50: 2.4 nM

COc1cnc2c(-c3nc4cc(F)c(O[C@@H](C)[C@@H](C)OC(=O)Nc5cnc(OC[C@@H](C)O)nc5)nc4s3)cc(C)cc2n1 [Example 729, (2R,3S)-3-((6-fluoro-2-(2-methoxy-7-methylquinoxalin-5-yl)thiazolo[5,4-b]pyridin-5-yl)oxy)butan-2-yl (2-((R)-2-hydroxypropoxy)pyrimidin-5-yl)carbamate]
IC50: 2.8 nM

COc1cnc2c(-c3nc4cc(F)c(O[C@@H](C)[C@@H](C)OC(=O)Nc5cnc(OCCC(C)(C)O)nc5)nc4s3)cc(C)cc2n1 [Example 730, (2R,3S)-3-((6-fluoro-2-(2-methoxy-7-methylquinoxalin-5-yl)thiazolo[5,4-b]pyridin-5-yl)oxy)butan-2-yl (2-(3-hydroxy-3-methylbutoxy)pyrimidin-5-yl)carbamate]
IC50: 13 nM

COc1cnc2c(-c3nc4cc(F)c(O[C@@H](C)[C@@H](C)OC(=O)Nc5cnc(C)nc5)nc4s3)cc(C)cc2n1 [Example 731, (2R,3S)-3-((6-fluoro-2-(2-methoxy-7-methylquinoxalin-5-yl)thiazolo[5,4-b]pyridin-5-yl)oxy)butan-2-yl (2-methylpyrimidin-5-yl)carbamate]
IC50: 0.9 nM

COc1cnc2c(-c3nc4c(C)cc(OC[C@@H](C)OC(=O)Nc5cccnc5)nc4s3)cc(C)cc2n1 [Example 733, (R)-1-((2-(2-methoxy-7-methylquinoxalin-5-yl)-7-methylthiazolo[5,4-b]pyridin-5-yl)oxy)propan-2-yl pyridin-3-ylcarbamate]
IC50: 1.1 nM

COc1cnc2c(-c3nc4c(C)cc(OC[C@@H](C)OC(=O)Nc5cnc(F)c(C)c5)nc4s3)cc(C)cc2n1 [Example 734, (R)-1-((2-(2-methoxy-7-methylquinoxalin-5-yl)-7-methylthiazolo[5,4-b]pyridin-5-yl)oxy) propan-2-yl (6-fluoro-5-methylpyridin-3-yl)carbamate]
IC50: 1 nM

COc1cnc2c(-c3nc4c(C)cc(OC[C@@H](C)OC(=O)Nc5cncc(C#N)c5)nc4s3)cc(C)cc2n1 [Example 735, (R)-1-((2-(2-methoxy-7-methylquinoxalin-5-yl)-7-methylthiazolo[5,4-b]pyridin-5-yl)oxy) propan-2-yl (5-cyanopyridin-3-yl)carbamate]
IC50: 1.1 nM

COc1cnc2c(-c3nc4c(C)cc(OC[C@@H](C)OC(=O)Nc5cnc(Cl)nc5)nc4s3)cc(C)cc2n1 [Example 736, (R)-1-((2-(2-methoxy-7-methylquinoxalin-5-yl)-7-methylthiazolo[5,4-b]pyridin-5-yl)oxy) propan-2-yl (2-chloropyrimidin-5-yl)carbamate]
IC50: 5.3 nM

COc1cnc2c(-c3nc4c(C)cc(OC[C@@H](C)OC(=O)Nc5cnc(C)nc5)nc4s3)cc(C)cc2n1 [Example 737, (R)-1-((2-(2-methoxy-7-methylquinoxalin-5-yl)-7-methylthiazolo[5,4-b]pyridin-5-yl)oxy) propan-2-yl (2-methylpyrimidin-5-yl)carbamate]
IC50: 8.1 nM

COc1cnc2c(-c3nc4c(C)cc(OC[C@@H](C)OC(=O)Nc5cnc(OC)nc5)nc4s3)cc(C)cc2n1 [Example 738, (R)-1-((2-(2-methoxy-7-methylquinoxalin-5-yl)-7-methylthiazolo[5,4-b]pyridin-5-yl)oxy) propan-2-yl (2-methoxypyrimidin-5-yl)carbamate]
IC50: 10 nM

COc1cnc2c(-c3nc4cc(F)c(OC[C@@H](C)OC(=O)Nc5ccc(C(=O)NCC(C)(C)O)nc5)nc4s3)cc(C)cc2n1 [Example 741, (R)-1-((6-fluoro-2-(2-methoxy-7-methylquinoxalin-5-yl)thiazolo[5,4-b]pyridin-5-yl)oxy) propan-2-yl (6-((2-hydroxy-2-methylpropyl)carbamoyl)pyridin-3-yl)carbamate]
IC50: 2.1 nM

COc1cnc2c(-c3nc4cc(F)c(OC[C@@H](C)OC(=O)Nc5ccc(C(=O)NC[C@@H](C)O)nc5)nc4s3)cc(C)cc2n1 [Example 747, (R)-1-((6-fluoro-2-(2-methoxy-7-methylquinoxalin-5-yl)thiazolo[5,4-b]pyridin-5-yl)oxy) propan-2-yl (6-(((R)-2-hydroxypropyl)carbamoyl)pyridin-3-yl)carbamate]
IC50: 2.4 nM

COc1cnc2c(-c3nc4cc(F)c(OC[C@@H](C)OC(=O)Nc5ccc(C(=O)NC[C@H](C)O)nc5)nc4s3)cc(C)cc2n1 [Example 748, (R)-1-((6-fluoro-2-(2-methoxy-7-methylquinoxalin-5-yl)thiazolo[5,4-b]pyridin-5-yl)oxy) propan-2-yl (6-(((S)-2-hydroxypropyl)carbamoyl)pyridin-3-yl)carbamate]
IC50: 2.9 nM

COc1cnc2c(-c3nc4cc(F)c(OC[C@@H](C)OC(=O)Nc5cnc(C(N)=O)nc5)nc4s3)cc(C)cc2n1 [Example 749, (R)-1-((6-fluoro-2-(2-methoxy-7-methylquinoxalin-5-yl)thiazolo[5,4-b]pyridin-5-yl)oxy) propan-2-yl (2-carbamoylpyrimidin-5-yl)carbamate]
IC50: 4.3 nM

COc1cnc2c(-c3nc4cc(F)c(O[C@@H](C)[C@@H](C)OC(=O)Nc5ccc(C(=O)NC[C@H](C)O)nc5)nc4s3)cc(C)cc2n1 [Example 750, (2R,3S)-3-((6-fluoro-2-(2-methoxy-7-methylquinoxalin-5-yl)thiazolo[5,4-b]pyridin-5-yl)oxy)butan-2-yl (6-(((S)-2-hydroxypropyl)carbamoyl)pyridin-3-yl)carbamate]
IC50: 1.1 nM

COc1cnc2c(-c3nc4cc(F)c(O[C@@H](C)[C@@H](C)OC(=O)Nc5cnc(C(=O)NCC(C)(C)O)nc5)nc4s3)cc(C)cc2n1 [Example 751, (2R,3S)-3-((6-fluoro-2-(2-methoxy-7-methylquinoxalin-5-yl)thiazolo[5,4-b]pyridin-5-yl)oxy)butan-2-yl (2-((2-hydroxy-2-methylpropyl)carbamoyl)pyrimidin-5-yl)carbamate]
IC50: 4.7 nM

COc1cnc2c(-c3nc4cc(F)c(O[C@@H](C)[C@@H](C)OC(=O)Nc5cnc(C(=O)NC[C@@H](C)O)nc5)nc4s3)cc(C)cc2n1 [Example 752, (2R,3S)-3-((6-fluoro-2-(2-methoxy-7-methylquinoxalin-5-yl)thiazolo[5,4-b]pyridin-5-yl)oxy)butan-2-yl (2-(((R)-2-hydroxypropyl)carbamoyl)pyrimidin-5-yl)carbamate]
IC50: 14 nM

COc1cnc2c(-c3nc4cc(F)c(O[C@@H](C)[C@@H](C)OC(=O)Nc5cnc(C(=O)NC[C@H](C)O)nc5)nc4s3)cc(C)cc2n1 [Example 753, (2R,3S)-3-((6-fluoro-2-(2-methoxy-7-methylquinoxalin-5-yl)thiazolo[5,4-b]pyridin-5-yl)oxy)butan-2-yl (2-(((S)-2-hydroxypropyl)carbamoyl)pyrimidin-5-yl)carbamate]
IC50: 12 nM

COc1cnc2c(-c3nc4cc(F)c(O[C@@H](C)[C@@H](C)OC(=O)Nc5ccc(C(N)=O)nc5)nc4s3)cc(C)cc2n1 [Example 754, (2R,3S)-3-((6-fluoro-2-(2-methoxy-7-methylquinoxalin-5-yl)thiazolo[5,4-b]pyridin-5-yl)oxy)butan-2-yl (6-carbamoylpyridin-3-yl)carbamate]
IC50: 0.3 nM

COc1cnc2c(-c3nc4cc(F)c(O[C@@H](C)[C@@H](C)OC(=O)Nc5cnc(C(N)=O)nc5)nc4s3)cc(C)cc2n1 [Example 755, (2R,3S)-3-((6-fluoro-2-(2-methoxy-7-methylquinoxalin-5-yl)thiazolo[5,4-b]pyridin-5-yl)oxy)butan-2-yl (2-carbamoylpyrimidin-5-yl)carbamate]
IC50: 0.3 nM

COc1cnc2c(-c3nc4c(C)cc(OCCNS(=O)(=O)c5ccc(C)cc5)nc4s3)cc(C)cc2n1 [Example 762, N-(2-((2-(2-methoxy-7-methylquinoxalin-5-yl)-7-methylthiazolo[5,4-b]pyridin-5-yl)oxy)ethyl)-4-methylbenzenesulfonamide]
IC50: 1.4 nM

COCc1cnc2c(-c3nc4c(C)c(F)c(OC)nc4s3)cc(C)cc2n1 [Example 763, 6-fluoro-5-methoxy-2-(2-(methoxymethyl)-7-methylquinoxalin-5-yl)-7-methylthiazolo[5,4-b]pyridine]
IC50: 4 nM

COc1cnc2c(-c3nc4cc(F)c(O[C@@H](C)[C@@H](C)OC(=O)Nc5cnc(CO)nc5)nc4s3)cc(C)cc2n1 [Example 764, (2R,3S)-3-((6-fluoro-2-(2-methoxy-7-methylquinoxalin-5-yl)thiazolo[5,4-b]pyridin-5-yl)oxy)butan-2-yl (2-(hydroxymethyl)pyrimidin-5-yl)carbamate]
IC50: 1.7 nM

COc1cnc2c(-c3nc4cc(F)c(O[C@@H](C)[C@@H](C)OC(=O)Nc5ccc(C(C)(C)O)nc5)nc4s3)cc(C)cc2n1 [Example 765, (2R,3S)-3-((6-fluoro-2-(2-methoxy-7-methylquinoxalin-5-yl)thiazolo[5,4-b]pyridin-5-yl)oxy)butan-2-yl (6-(2-hydroxypropan-2-yl)pyridin-3-yl)carbamate]
IC50: 0.8 nM
